Drawing on US20250320213A1, “Nitrogen-Containing Heterocyclic Compounds” (Pfizer Inc., priority 2024, published 2025), this text covers IC50 and EC50 for 15 molecules.

Usually IC50 stands for the concentration that inhibits the measured activity by half. Read a low IC50 as greater potency. The term EC50 denotes the concentration giving half of the maximal effect.

The subject of experiment [1] is CCL17 secretion in peripheral human whole blood. The experiment in a line: Human Whole Blood (HWB) CCL17 TR-FRET Assay (IL-13 stimulated CCL17 secretion). Type of experiment: cell-based. The note with it: Homo sapiens, 48 h. The protocol:
The IC50 (half-maximal concentration required for inhibition) of compounds for the inhibition of CCL17 secretion in peripheral human whole blood, stimulated through the IL-13-IL-13 receptor/IL-4 receptor pathway was evaluated with a TR-FRET sandwich ELISA CCL17 (TARC) Assay Kit (Bioauxilium).
Test compounds (solubilized and serially diluted in DMSO, in an 11 point, 3-fold dilution series in duplicate) were spotted, 80 nL per well, into a 384 well v-bottom polypropylene plate. Human whole blood was collected from a peripheral vein, 714 units of sodium heparin was added for every 50 mL of blood collected. Sixty μL per well of blood was added to the compound plate. The blood plate was incubated for two hours at 37° C. After two hours, CCL17 production was stimulated with the addition of 20 μL per well of IL13 (R&D Systems) in HBSS with calcium and magnesium, with a final concentration of 10 ng/mL IL13. The plate containing blood, compound, and IL-13 was incubated at 37° C. for 48 hours, to allow for CCL17 production. After 48 hours, the plate was centrifuged at 1,500 revolutions per minute (RPM) for 7 minutes, with no braking. The CCL17 TR-FRET Assay Kit detection reagent was prepared according to kit instructions and 4 μL per well of the antibody cocktail was added to a 384-well white low volume non-binding coated plate (Corning). Sixteen μL of serum from the centrifuged blood plate was transferred to the detection plate containing the TR-FRET antibody cocktail. The plate was centrifuged briefly, then covered and incubated 16 hours at room temperature. The plate was then read on an EnVision 2105 multilabel reader (PerkinElmer) with settings for TR-FRET Ratio=10,000×(fluorescence intensity 665 nm/fluorescence intensity 615 nm).

In another experiment the target is T1, STAT6 (Homo sapiens, UniProt P42226).
T1 construct: stably transfected HaCaT keratinocyte cell line, which expresses NanoLuc luciferase reporter gene under the transcriptional control of the STAT6 responsive promoter; endogenous in cells; host or cells: HaCaT keratinocyte reporter cell line (stably transfected with a NanoLuc reporter)
T1 sequence (P42226 1-847): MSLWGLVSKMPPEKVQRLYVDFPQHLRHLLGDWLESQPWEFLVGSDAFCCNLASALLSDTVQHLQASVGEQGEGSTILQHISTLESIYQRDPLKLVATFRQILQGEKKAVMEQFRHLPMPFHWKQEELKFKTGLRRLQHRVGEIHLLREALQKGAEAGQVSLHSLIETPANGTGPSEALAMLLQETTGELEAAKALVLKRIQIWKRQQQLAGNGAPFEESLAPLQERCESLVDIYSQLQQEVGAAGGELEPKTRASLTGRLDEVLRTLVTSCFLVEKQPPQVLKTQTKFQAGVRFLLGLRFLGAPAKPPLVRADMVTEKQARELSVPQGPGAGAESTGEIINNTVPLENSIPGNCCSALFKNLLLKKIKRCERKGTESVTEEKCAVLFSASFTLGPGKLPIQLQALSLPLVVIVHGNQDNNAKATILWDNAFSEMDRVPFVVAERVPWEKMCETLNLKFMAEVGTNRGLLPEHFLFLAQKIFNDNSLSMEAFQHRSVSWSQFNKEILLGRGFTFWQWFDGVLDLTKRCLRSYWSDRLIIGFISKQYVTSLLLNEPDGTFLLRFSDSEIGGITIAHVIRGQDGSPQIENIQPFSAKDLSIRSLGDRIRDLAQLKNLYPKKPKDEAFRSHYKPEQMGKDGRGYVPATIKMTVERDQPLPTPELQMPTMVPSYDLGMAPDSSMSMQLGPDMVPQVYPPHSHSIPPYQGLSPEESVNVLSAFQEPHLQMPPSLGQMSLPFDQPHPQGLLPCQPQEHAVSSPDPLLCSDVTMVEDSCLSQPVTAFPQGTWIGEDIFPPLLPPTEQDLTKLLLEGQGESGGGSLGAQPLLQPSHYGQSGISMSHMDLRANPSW
Kind of experiment: STAT6 Reporter Luciferase Assay (IL-13 stimulated HaCaT keratinocyte NanoLuc reporter cells). Type of experiment: cell-based. To be noted: read-out: Reporter EC50. The procedure, abridged: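 HaCaT IL-13Ra2-promoter NanoLuc reporter; cpd 2 h 37 °C in DMEM/2% HI FBS; IL-13 0.12 nM final, 4 h; Nano-Glo luminescence.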

Setting [2] is: inhibition of CCL17 secretion in human whole blood, 10 ng/mL IL13, 48 hours.
The mark [3] stands for this setting: STAT6 NanoLuc luciferase reporter, IL-13 stimulated HaCaT keratinocyte cells.
Where [4] appears, read: human whole blood, IL-13 stimulated.
Setting [5] is: IL-13 stimulated HaCaT STAT6 NanoLuc reporter cells.

Read-outs that look alike come from different tables or passages of the source.

`CCC1CN(c2ccc(C(=O)N(C)C)cn2)Cc2c(C(=O)NCc3ccc(NC(=O)N(C)C)cc3)nn(CC)c21` (racemic) [Example 115, rac-(R)-5-(5-(dimethylcarbamoyl)pyridin-2-yl)-N-(4-(3,3-dimethylureido)benzyl)-1,7-diethyl-4,5,6,7-tetrahydro-1H-pyrazolo[4,3-c]pyridine-3-carboxamide]: the IC50 in experiment [1] (setting [2]) turned out to be 12 nM. Moreover, the EC50 at STAT6 (setting [3]) was 2 nM.

For the molecule `CCC1Cc2c(c(C(=O)NCc3ccc(NC(=O)N(C)C)cc3)nn2CC)CN1c1ccc(C(=O)N(C)C)cn1` (racemic) [Example 116, rac-(R)-5-(5-(dimethylcarbamoyl)pyridin-2-yl)-N-(4-(3,3-dimethylureido)benzyl)-1,6-diethyl-4,5,6,7-tetrahydro-1H-pyrazolo[4,3-c]pyridine-3-carboxamide], half-maximal inhibition in experiment [1] (setting [2]) (IC50) required 61 nM. For the same molecule, the EC50 at STAT6 (setting [3]) came out at 10 nM.

In experiment [1] (setting [2]), `CC(C)n1nc(C(=O)NCc2ccc(NC(=O)N(C)C)cn2)c2c1C(C(F)(F)F)CN(c1ccc(C(=O)N(C)C)cn1)C2` (racemic) [Example 121, rac-(R)-5-(5-(dimethylcarbamoyl)pyridin-2-yl)-N-((5-(3,3-dimethylureido)pyridin-2-yl)methyl)-1-isopropyl-7-(trifluoromethyl)-4,5,6,7-tetrahydro-1H-pyrazolo[4,3-c]pyridine-3-carboxamide] had an IC50 of 6 nM. Besides, the EC50 at STAT6 (setting [3]) came to 1 nM.

Take `CCC1CN(c2ccc(C(=O)N(C)C)cn2)Cc2c(C(=O)NCc3ccc(NC(=O)N(C)C)cc3)nc(C)n21` (racemic) [Example 130, rac-(R)-7-(5-(dimethylcarbamoyl)pyridin-2-yl)-N-(4-(3,3-dimethylureido)benzyl)-5-ethyl-3-methyl-5,6,7,8-tetrahydroimidazo[1,5-a]pyrazine-1-carboxamide]: the midpoint of inhibition in experiment [1] (setting [2]), the IC50, lay at 77 nM. For the same molecule, the EC50 on STAT6 (setting [3]) amounted to 23 nM.

In turn, `CC(C)n1nc(C(=O)NCc2ccc(NC(=O)NCC3CCOC3)cc2)c2c1CCN(c1ccc(C(=O)N(C)C)cn1)C2` (racemic) [Example 155, rac-(R)-5-(5-(dimethylcarbamoyl)pyridin-2-yl)-1-isopropyl-N-(4-(3-((tetrahydrofuran-3-yl)methyl)ureido)benzyl)-4,5,6,7-tetrahydro-1H-pyrazolo[4,3-c]pyridine-3-carboxamide] yielded an IC50 in experiment [1] (setting [2]) of 141 nM. Further, the EC50 on STAT6 (setting [3]) was 12 nM.

With `CC(C)n1nc(C(=O)NCc2ccc(NC(=O)N3CCC(C)(O)C3)cc2)c2c1CCN(c1ccc(C(=O)N(C)C)cn1)C2` (racemic) [Example 160, rac-(R)-5-(5-(dimethylcarbamoyl)pyridin-2-yl)-N-(4-(3-hydroxy-3-methylpyrrolidine-1-carboxamido)benzyl)-1-isopropyl-4,5,6,7-tetrahydro-1H-pyrazolo[4,3-c]pyridine-3-carboxamide], in experiment [1] (setting [2]), the IC50 was found to be 21 nM. In addition, at STAT6 (setting [3]), the EC50 stood at 15 nM.

As to `CC(C)n1nc(C(=O)NCc2ccc(NC(=O)N3CCC4(CNCCO4)C3)cc2)c2c1CCN(c1ccc(C(=O)N(C)C)cn1)C2` (racemic) [Example 164, rac-(R)-N-(4-((5-(5-(dimethylcarbamoyl)pyridin-2-yl)-1-isopropyl-4,5,6,7-tetrahydro-1H-pyrazolo[4,3-c]pyridine-3-carboxamido)methyl)phenyl)-6-oxa-2,9-diazaspiro[4.5]decane-2-carboxamide], the IC50 in experiment [1] (setting [2]) came to 45 nM. The EC50 at STAT6 (setting [3]) is 13 nM.

For the molecule `CO[C@@H]1CN(C(=O)Nc2ccc(CNC(=O)c3nn(C(C)C)c4c3CN(c3ccc(C(=O)N(C)C)cn3)CC4)cc2)C[C@H]1F` (racemic) [Example 171, rac-5-(5-(dimethylcarbamoyl)pyridin-2-yl)-N-(4-((3R,4R)-3-fluoro-4-methoxypyrrolidine-1-carboxamido)benzyl)-1-isopropyl-4,5,6,7-tetrahydro-1H-pyrazolo[4,3-c]pyridine-3-carboxamide], the IC50 in experiment [1] (setting [2]) is 57 nM. Further, the EC50 on STAT6 (setting [3]) was found to be 5 nM.

Molecule `CC(C)n1nc(C(=O)NCc2ccc(NC(=O)N3CCCC3CO)cc2)c2c1CCN(c1ccc(C(=O)N(C)C)cn1)C2` (racemic) [Example 174, rac-(R)-5-(5-(dimethylcarbamoyl)pyridin-2-yl)-N-(4-(2-(hydroxymethyl)pyrrolidine-1-carboxamido)benzyl)-1-isopropyl-4,5,6,7-tetrahydro-1H-pyrazolo[4,3-c]pyridine-3-carboxamide] gave an IC50 in experiment [1] (setting [2]) of 212 nM. Besides, the 50% effective concentration (EC50) at STAT6 (setting [3]) is 40 nM.

The molecule `CC(C)n1nc(C(=O)NCc2ccc(NC(=O)N(C)CC3COCCO3)cc2)c2c1CCN(c1ccc(C(=O)N(C)C)cn1)C2` (racemic) [Example 176, rac-(R)-N-(4-(3-((1,4-dioxan-2-yl)methyl)-3-methylureido)benzyl)-5-(5-(dimethylcarbamoyl)pyridin-2-yl)-1-isopropyl-4,5,6,7-tetrahydro-1H-pyrazolo[4,3-c]pyridine-3-carboxamide] returned an IC50 in experiment [1] (setting [2]) of 51 nM. The EC50 at STAT6 (setting [3]) stood at 12 nM.

The molecule `CCc1nc(C(=O)NCc2ccc(NC(=O)N(C)C)cc2)c2n1C(C)CN(c1ccc(C(=O)N(C)C)cn1)C2` (racemic) [Example 205, rac-(R)-7-(5-(dimethylcarbamoyl)pyridin-2-yl)-N-(4-(3,3-dimethylureido)benzyl)-3-ethyl-5-methyl-5,6,7,8-tetrahydroimidazo[1,5-a]pyrazine-1-carboxamide] displayed an IC50 in experiment [1] (setting [4]) of 19 nM. Further, the EC50 on STAT6 (setting [5]) was 5 nM.

`CCC1CN(c2ccc(C(=O)N(C)C)cn2)Cc2c(C(=O)NCc3ccc(NC(=O)N(C)C)cc3)nn(C(C)C)c21` (racemic) [Example 246, rac-(R)-5-(5-(dimethylcarbamoyl)pyridin-2-yl)-N-(4-(3,3-dimethylureido)benzyl)-7-ethyl-1-isopropyl-4,5,6,7-tetrahydro-1H-pyrazolo[4,3-c]pyridine-3-carboxamide]: the IC50 in experiment [1] (setting [4]) was found to be 10 nM. At STAT6 (setting [5]), the EC50 came out at 1 nM.

Take `CCC1Cc2c(c(C(=O)NCc3ccc(NC(=O)N(C)C)cc3)nn2C(C)C)CN1c1ccc(C(=O)N(C)C)cn1` (racemic) [Example 249, rac-(R)-5-(5-(dimethylcarbamoyl)pyridin-2-yl)-N-(4-(3,3-dimethylureido)benzyl)-6-ethyl-1-isopropyl-4,5,6,7-tetrahydro-1H-pyrazolo[4,3-c]pyridine-3-carboxamide]: in experiment [1] (setting [4]), 31 nM corresponded to half-maximal inhibition (IC50). For the same molecule, the EC50 on STAT6 (setting [5]) is 6 nM.

For `CC(C)n1nc(C(=O)NCc2ccc(NC(=O)N(C)C)cc2)c2c1CC(C(F)(F)F)N(c1ccc(C(=O)N(C)C)cn1)C2` (racemic) [Example 255, rac-(R)-5-(5-(dimethylcarbamoyl)pyridin-2-yl)-N-(4-(3,3-dimethylureido)benzyl)-1-isopropyl-6-(trifluoromethyl)-4,5,6,7-tetrahydro-1H-pyrazolo[4,3-c]pyridine-3-carboxamide], the IC50 in experiment [1] (setting [4]) worked out at 48 nM. The EC50 on STAT6 (setting [5]) turned out to be 3 nM.

On to `CCC1Cc2c(c(C(=O)NCc3ccc(NC(=O)N(C)C)cc3)nn2C)CN1c1ccc(C(=O)N(C)C)cn1` (racemic) [Example 260, rac-(R)-5-(5-(dimethylcarbamoyl)pyridin-2-yl)-N-(4-(3,3-dimethylureido)benzyl)-6-ethyl-1-methyl-4,5,6,7-tetrahydro-1H-pyrazolo[4,3-c]pyridine-3-carboxamide], for which, in experiment [1] (setting [4]), the IC50 is 64 nM. The EC50 on STAT6 (setting [5]) came out at 10 nM.
